Legend:
Bleomycin + Trametinib = compound: CC1=C(N=C(N=C1N)[C@H](CC(=O)N)NC[C@@H](C(=O)N)N)C(=O)N[C@@H]([C@H](C2=CN=CN2)OC3C(C(C(C(O3)CO)O)O)OC4C(C(C(C(O4)CO)O)OC(=O)N)O)C(=O)N[C@H](C)[C@H]([C@H](C)C(=O)N[C@@H]([C@@H](C)O)C(=O)NCCC5=NC(=CS5)C6=NC(=CS6)C(=O)NCCC[S+](C)C)O [Bleomycin] + CC(=O)Nc1cccc(-n2c(=O)n(C3CC3)c(=O)c3c(Nc4ccc(I)cc4F)n(C)c(=O)c(C)c32)c1 [Trametinib] (partner 0.02 µM); test: relative viability (nuclei count vs DMSO), 5 days (fraction); higher = more cells survive; settings: main component drawn
Method in brief: (§1)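 Lung cancer cell lines in 1536-well plates were dosed by pin tool the day after seeding, either with one drug alone or with a fixed anchor-drug dose plus five library-drug doses (not always all listed) in √10 steps. After 5 days, cells were fixed and their nuclei stained in one step (final 0.05% Triton X-100, 1% formaldehyde, 1 ug/ml Hoechst), then counted on 4× images. Relative viability is the nuclei count in treated wells divided by that in vehicle wells. Values are medians of duplicate plates.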

Bleomycin + AZD7762 = compound: CC1=C(N=C(N=C1N)[C@H](CC(=O)N)NC[C@@H](C(=O)N)N)C(=O)N[C@@H]([C@H](C2=CN=CN2)OC3C(C(C(C(O3)CO)O)O)OC4C(C(C(C(O4)CO)O)OC(=O)N)O)C(=O)N[C@H](C)[C@H]([C@H](C)C(=O)N[C@@H]([C@@H](C)O)C(=O)NCCC5=NC(=CS5)C6=NC(=CS6)C(=O)NCCC[S+](C)C)O [Bleomycin] + NC(=O)Nc1cc(-c2cccc(F)c2)sc1C(=O)N[C@H]1CCCNC1 [AZD7762] (partner 0.2 µM); test: as above; settings: main component drawn
Method in brief: as §1

Row | Cell Line | relative viability (Bleomycin + Trametinib; first compound 0.01 µM) | relative viability (Bleomycin + Trametinib; first compound 0.03162 µM) | relative viability (Bleomycin + Trametinib; first compound 0.1 µM) | relative viability (Bleomycin + Trametinib; first compound 0.3162 µM) | relative viability (Bleomycin + Trametinib; first compound 1 µM) | relative viability (Bleomycin + AZD7762; first compound 0.01 µM) | relative viability (Bleomycin + AZD7762; first compound 0.03162 µM) | relative viability (Bleomycin + AZD7762; first compound 0.1 µM) | relative viability (Bleomycin + AZD7762; first compound 0.3162 µM) | relative viability (Bleomycin + AZD7762; first compound 1 µM)
1 | NCI-H596 | 0.674 | 0.562 | 0.423 | 0.38 | 0.379 | 1.06 | 1.03 | 0.891 | 0.349 | 0.398
2 | NCI-H647 | 0.35 | 0.217 | 0.158 | 0.114 | 0.111 | 0.166 | 0.284 | 0.112 | 0.0842 | 0.0575
3 | NCI-H650 | 0.909 | 0.993 | 0.8 | 0.352 | 0.18 | 0.949 | 1.07 | 0.723 | 0.515 | 0.36
4 | NCI-H661 | 0.546 | 0.484 | 0.477 | 0.392 | 0.292 | – | – | – | – | –
5 | NCI-H727 | 0.376 | 0.321 | 0.392 | 0.404 | 0.406 | 0.683 | 0.574 | 0.451 | 0.33 | 0.463
6 | NCI-H838 | 0.432 | 0.246 | 0.186 | 0.154 | 0.118 | 0.701 | 0.68 | 0.661 | 0.594 | 0.649
7 | NCI-H1355 | 0.415 | 0.385 | 0.482 | 0.317 | 0.198 | 0.783 | 0.9 | 0.783 | 0.63 | 0.323
8 | NCI-H1395 | 0.753 | 0.822 | 0.714 | 0.482 | 0.404 | 0.371 | 0.401 | 0.352 | 0.392 | 0.324
9 | NCI-H1437 | 0.475 | 0.411 | 0.678 | 0.439 | 0.276 | 1.04 | 1.12 | 1.14 | 0.765 | 0.746
10 | NCI-H1648 | 0.388 | 0.4 | 0.416 | 0.269 | 0.295 | 0.623 | 0.716 | 0.512 | 0.373 | 0.375
11 | NCI-H1650 | 0.325 | 0.257 | 0.244 | 0.138 | 0.135 | – | – | – | – | –
12 | NCI-H1651 | 0.818 | 0.712 | 0.714 | 0.368 | 0.223 | 0.484 | 0.46 | 0.323 | 0.266 | 0.219
13 | NCI-H1666 | 0.717 | 0.783 | 0.76 | 0.533 | 0.581 | 0.972 | 0.695 | 0.57 | 0.512 | 0.486
14 | NCI-H1703 | – | – | – | – | – | 0.131 | 0.139 | 0.128 | 0.122 | 0.114
15 | NCI-H1734 | 0.518 | 0.537 | 0.397 | 0.263 | 0.163 | 0.485 | 0.449 | 0.325 | 0.21 | 0.151
16 | NCI-H1755 | 0.734 | 0.726 | 0.78 | 0.665 | 0.61 | 0.41 | 0.495 | 0.36 | 0.353 | 0.311
17 | NCI-H1792 | 0.462 | 0.396 | 0.356 | 0.317 | 0.189 | 0.615 | 0.635 | 0.716 | 0.253 | 0.141
18 | NCI-H1793 | 0.442 | 0.413 | 0.382 | 0.262 | 0.194 | 0.316 | 0.564 | 0.341 | 0.159 | 0.177

Row | Cell Line | relative viability (Bleomycin + Trametinib; first compound 0.01 µM) | relative viability (Bleomycin + Trametinib; first compound 0.03162 µM) | relative viability (Bleomycin + Trametinib; first compound 0.1 µM) | relative viability (Bleomycin + Trametinib; first compound 0.3162 µM) | relative viability (Bleomycin + Trametinib; first compound 1 µM) | relative viability (Bleomycin + AZD7762; first compound 0.01 µM) | relative viability (Bleomycin + AZD7762; first compound 0.03162 µM) | relative viability (Bleomycin + AZD7762; first compound 0.1 µM) | relative viability (Bleomycin + AZD7762; first compound 0.3162 µM) | relative viability (Bleomycin + AZD7762; first compound 1 µM)
19 | NCI-H1915 | 0.282 | 0.295 | 0.215 | 0.165 | 0.128 | 0.53 | 0.552 | 0.314 | 0.221 | 0.137
20 | NCI-H1944 | 0.319 | 0.255 | 0.276 | 0.234 | 0.165 | 0.246 | 0.384 | 0.317 | 0.211 | 0.172
21 | NCI-H1975 | 0.326 | 0.284 | 0.327 | 0.226 | 0.152 | 0.609 | 0.649 | 0.555 | 0.259 | 0.291
22 | NCI-H1993 | 0.493 | 0.476 | 0.459 | 0.391 | 0.346 | 0.723 | 0.822 | 0.739 | 0.491 | 0.517
23 | NCI-H2009 | 0.296 | 0.275 | 0.276 | 0.258 | 0.224 | – | – | – | – | –
24 | NCI-H2023 | 0.277 | 0.383 | 0.363 | 0.148 | 0.129 | – | – | – | – | –
25 | NCI-H2085 | 0.549 | 0.514 | 0.384 | 0.243 | 0.226 | 0.896 | 0.967 | 0.828 | 0.301 | 0.464
26 | NCI-H2087 | 0.204 | 0.146 | 0.176 | 0.177 | 0.135 | 0.981 | 1.2 | 1.31 | 0.976 | 0.512
27 | NCI-H2126 | 0.525 | 0.583 | 0.594 | 0.52 | 0.508 | 0.932 | 0.963 | 1.15 | 0.894 | 0.922
28 | NCI-H2170 | 0.89 | 0.89 | 0.808 | 0.559 | 0.468 | 0.781 | 0.63 | 0.687 | 0.467 | 0.421
29 | NCI-H2228 | 0.537 | 0.468 | 0.431 | 0.269 | 0.26 | – | – | – | – | –
30 | NCI-H2342 | 0.896 | 0.737 | 0.758 | 0.577 | 0.576 | 0.5 | 0.611 | 0.495 | 0.589 | 0.42
31 | NCI-H2347 | 0.309 | 0.254 | 0.29 | 0.279 | 0.226 | 0.727 | 0.858 | 0.714 | 0.325 | 0.45
32 | NCI-H2405 | 0.537 | 0.529 | 0.578 | 0.444 | 0.313 | 0.668 | 0.683 | 0.632 | 0.531 | 0.304
33 | SK-LU-1 | 0.415 | 0.487 | 0.464 | 0.43 | 0.392 | – | – | – | – | –
34 | SK-MES-1 | 0.501 | 0.532 | 0.527 | 0.28 | 0.219 | – | – | – | – | –
35 | SW 1573 | 0.47 | 0.424 | 0.322 | 0.191 | 0.141 | – | – | – | – | –

Reference: the supplement of paper PMC10307832
